tested on: Frankliniella occidentalis (Western flower thrips); experiment: Test Example 2: sprayed cucumber leaf, larvae of Frankliniella occidentalis set free, surviving pests counted; type: in vivo; details: 500 ppm spray solution, 20 ml/cup, cucumber first true leaf, thirty larvae set free, after seven days
Method: Ten parts of each of the present compounds (2), (4), (6), (7), (8), (11), (12), (14), (16), (17), (19) to (24), (26), (28), (29), (34), (36) to (38), and (40); white carbon containing 50 parts of polyoxyethylene alkyl ether sulfate ammonium salt; and […] of water were mixed and pulverized by the wet grinding method to give a formulation for each compound. The formulation of each present compound was diluted with water so that the active ingredient concentration came to 500 ppm to prepare a spray solution.
A polyethylene cup was seeded with cucumber and a plant was grown until the first true leaf was developed, to which the above spray solution was applied at a ratio of 20 ml/cup. After the chemical solution sprayed to the cucumber were dried, the first true leaf was cut off and placed on a filter paper (70 mm in diameter) impregnated with water in a polyethylene cup (110 mm in diameter). Thirty larvae of Frankliniella occidentalis (Western flower thrips) were set free on the first true leaf, which was covered with a polyethylene cup. After seven days, the number of surviving pests was examined.

Row | SMILES | number of surviving pests
1 | CC#CCOc1cc(OC(C)C(Cl)Cl)ncn1 (stereo not drawn) [present compound (29), 4-(2-butynyloxy)-6-(2,2-dichloro-1-methylethyloxy)pyrimidine] | 0
2 | CC#CCOc1cc(OC(C)CC(C)(C)C)ncn1 (stereo not drawn) [present compound (7), 4-(2-butynyloxy)-6-(1,3,3-trimethylbutyloxy)pyrimidine] | 0
3 | CC#CCOc1cc(OC(C)C(C)(C)F)ncn1 (stereo not drawn) [present compound (14), 4-(2-butynyloxy)-6-(2-fluoro-1,2-dimethylpropyloxy)pyrimidine] | 0
4 | CC#CCOc1cc(OC(C)C(C)CC)ncn1 (stereo not drawn) [present compound (16), 4-(2-butynyloxy)-6-(1,2-dimethylbutyloxy)pyrimidine] | 0
5 | CCC#CCOc1cc(OCC(C)(C)Cl)ncn1 [present compound (40), 4-(2-pentynyloxy)-6-(2-chloro-2-methylpropyloxy)pyrimidine] | 0
6 | CC#CCOc1cc(OCC(C)(C)C)ncn1 [present compound (6), 4-(2-butynyloxy)-6-(2,2-dimethylpropyloxy)pyrimidine] | 0
7 | CC#CCOc1cc(OC(CC)C(C)(C)C)ncn1 (stereo not drawn) [present compound (4), 4-(2-butynyloxy)-6-(1-ethyl-2,2-dimethylpropyloxy)pyrimidine] | 0
8 | CC#CCOc1cc(OCC(C)(C)F)ncn1 [present compound (28), 4-(2-butynyloxy)-6-(2-fluoro-2-methylpropyloxy)pyrimidine] | 0
9 | CC#CCOc1cc(OC(C)C2CCCC2)ncn1 (stereo not drawn) [present compound (26), 4-(2-butynyloxy)-6-(1-cyclopentylethyloxy)pyrimidine] | 0
10 | CCC#CCOc1cc(OC(C)C(C)(C)F)ncn1 (stereo not drawn) [present compound (17), 4-(2-fluoro-1,2-dimethylpropyloxy)-6-(2-pentynyloxy)pyrimidine] | 0
11 | CC#CCOc1cc(OC(C)C2(C)CC2)ncn1 (stereo not drawn) [present compound (8), 4-(2-butynyloxy)-6-[1-(1-methylcyclopropyl)ethyloxy]pyrimidine] | 0
12 | CC#CCOc1cc(OC(C)C(C)C)ncn1 (stereo not drawn) [present compound (12), 4-(2-butynyloxy)-6-(1,2-dimethylpropyloxy)pyrimidine] | 0
13 | CC#CCOc1cc(OC(C)C(C)(C)Cl)ncn1 (stereo not drawn) [present compound (34), 4-(2-butynyloxy)-6-(2-chloro-1,2-dimethylpropyloxy)pyrimidine] | 0
14 | CC#CCOc1cc(OCCC(C)(C)C)ncn1 [present compound (11), 4-(2-butynyloxy)-6-(3,3-dimethylbutyloxy)pyrimidine] | 0
15 | CC#CCOc1cc(OC(C)C2CC2)ncn1 (stereo not drawn) [present compound (2), 4-(2-butynyloxy)-6-(1-cyclopropylethoxy)pyrimidine] | 0

From patent US7223769B2, “Pyrimidine compounds and their use as pesticides” (Sumitomo Chemical Company, Limited, priority 2002, dated 2007)
